In PubChem BioAssay AID248 (DTP/NCI, 2004):
“And” between values parts separate entries of the source, which are not always exact repeats. Equal values may be shown once. Toxic doses and inconclusive results are not listed. Rule as the data show it: active = T/C of 150% or more; inactive = T/C below 125%.

System: L1210 leukemia ip in BDF1 mice, survival T/C
Experiment: NCI In Vivo Anticancer Drug Screen. Data for tumor model L1210 Leukemia (intraperitoneal) in B6D2F1 (BDF1) mice
Settings: endpoint: mean survival time, higher = longer survival
In short: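 Each compound was tested against a transplantable tumor grown in mice. The endpoint was survival, with treated animals benchmarked against vehicle controls as a simple ratio.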

[1] = dose: 100.0 mg/kg/injection, schedule: Q04DX002 (ip), vehicle: Klucel (hydroxypropylcellulose) (HPC)
[2] = dose: 100.0 mg/kg/injection, schedule: Q01DX009 (ip), vehicle: saline with Tween-80
[3] = dose: 200.0 mg/kg/injection, schedule: Q01DX009 (ip), vehicle: saline with Tween-80
[4] = dose: 400.0 mg/kg/injection, schedule: Q01DX009 (ip), vehicle: saline with Tween-80
[5] = dose: 12.5 mg/kg/injection, schedule: Q01DX009 (ip), vehicle: saline
[6] = dose: 25.0 mg/kg/injection, schedule: Q01DX009 (ip), vehicle: saline
[7] = dose: 50.0 mg/kg/injection, schedule: Q01DX009 (ip), vehicle: saline
[8] = dose: 25.0 mg/kg/injection, schedule: Q01DX009 (ip), vehicle: Klucel (hydroxypropylcellulose) (HPC)
[9] = dose: 50.0 mg/kg/injection, schedule: Q01DX009 (ip), vehicle: Klucel (hydroxypropylcellulose) (HPC)
[10] = dose: 100.0 mg/kg/injection, schedule: Q04DX003 (ip), vehicle: Klucel (hydroxypropylcellulose) (HPC)
[11] = dose: 200.0 mg/kg/injection, schedule: Q01DX009 (ip), vehicle: Klucel (hydroxypropylcellulose) (HPC)
[12] = dose: 200.0 mg/kg/injection, schedule: Q04DX003 (ip), vehicle: Klucel (hydroxypropylcellulose) (HPC)
[13] = dose: 400.0 mg/kg/injection, schedule: Q04DX003 (ip), vehicle: Klucel (hydroxypropylcellulose) (HPC)
[14] = dose: 100.0 mg/kg/injection, schedule: Q01DX001 (ip), vehicle: Klucel (hydroxypropylcellulose) (HPC)
[15] = dose: 200.0 mg/kg/injection, schedule: Q01DX001 (ip), vehicle: Klucel (hydroxypropylcellulose) (HPC)
[16] = dose: 400.0 mg/kg/injection, schedule: Q01DX001 (ip), vehicle: Klucel (hydroxypropylcellulose) (HPC)
[17] = dose: 12.5 mg/kg/injection, schedule: Q01DX009 (ip), vehicle: Klucel (hydroxypropylcellulose) (HPC)
[18] = dose: 200.0 mg/kg/injection, schedule: Q04DX002 (ip), vehicle: Klucel (hydroxypropylcellulose) (HPC)
[19] = dose: 400.0 mg/kg/injection, schedule: Q04DX002 (ip), vehicle: Klucel (hydroxypropylcellulose) (HPC)
[20] = dose: 100.0 mg/kg/injection, schedule: Q01DX001 (ip), vehicle: saline
[21] = dose: 200.0 mg/kg/injection, schedule: Q01DX001 (ip), vehicle: saline
[22] = dose: 400.0 mg/kg/injection, schedule: Q01DX001 (ip), vehicle: saline
[23] = dose: 100.0 mg/kg/injection, schedule: Q01DX009 (ip), vehicle: Klucel (hydroxypropylcellulose) (HPC)
[24] = dose: 400.0 mg/kg/injection, schedule: Q01DX009 (ip), vehicle: Klucel (hydroxypropylcellulose) (HPC)
[25] = dose: 100.0 mg/kg/injection, schedule: Q04DX003 (ip), vehicle: saline
[26] = dose: 200.0 mg/kg/injection, schedule: Q04DX003 (ip), vehicle: saline
[27] = dose: 400.0 mg/kg/injection, schedule: Q04DX003 (ip), vehicle: saline
[28] = dose: 25.0 mg/kg/injection, schedule: Q04DX003 (ip), vehicle: saline
[29] = dose: 50.0 mg/kg/injection, schedule: Q04DX003 (ip), vehicle: saline
[30] = dose: 100.0 mg/kg/injection, schedule: Q01DX009 (ip), vehicle: saline

Measured: T/C

NC(=O)C(NC(=O)c1ccccc1)SCc1ccccc1 (stereo unspecified)
inactive: dose: 25.0 mg/kg/injection, schedule: Q04DX002 (ip), vehicle: Klucel (hydroxypropylcellulose) (HPC) 98 % of control | dose: 50.0 mg/kg/injection, schedule: Q04DX002 (ip), vehicle: Klucel (hydroxypropylcellulose) (HPC) 95 % of control | [1] 95 % of control

CC(C)(C)c1ccc(C(c2ccc(C(C)(C)C)cc2)C(Cl)(Cl)Cl)cc1
inactive: [2] 88 % of control | dose: 100.0 mg/kg/injection, schedule: Q04DX003 (ip), vehicle: saline sonified 98 % of control | [3] 94 % of control | dose: 200.0 mg/kg/injection, schedule: Q04DX003 (ip), vehicle: saline sonified 95 % of control | [4] 92 % of control | dose: 400.0 mg/kg/injection, schedule: Q04DX003 (ip), vehicle: saline sonified 97 % of control

CCCC(=O)NN=C(C)C
inactive: [5] 109 % of control | [6] 109 % of control | [7] 95 % of control

OCc1nc2cc3nc(CO)[nH]c3cc2[nH]1
inactive: dose: 75.0 mg/kg/injection, schedule: Q01DX001 (ip), vehicle: carboxymethylcellulose (CMC) 98 % of control | dose: 150.0 mg/kg/injection, schedule: Q01DX001 (ip), vehicle: carboxymethylcellulose (CMC) 101 % of control

Cc1ccc(C)c(NC(=O)Oc2ccc(Br)cc2Br)c1
inactive: [8] 92 % of control | [9] 94 % of control | [10] 94 % of control | [11] 93 % of control and 114 % of control | [12] 87 % of control | [13] 110 % of control

C=CC(O)CCCCCC (stereo unspecified)
inactive: dose: 50.0 mg/kg/injection, schedule: Q01DX001 (ip), vehicle: carboxymethylcellulose (CMC) 97 % of control | dose: 100.0 mg/kg/injection, schedule: Q01DX001 (ip), vehicle: carboxymethylcellulose (CMC) 101 % of control | dose: 200.0 mg/kg/injection, schedule: Q01DX001 (ip), vehicle: carboxymethylcellulose (CMC) 95 % of control | dose: 400.0 mg/kg/injection, schedule: Q01DX001 (ip), vehicle: carboxymethylcellulose (CMC) 103 % of control

O=Cc1ccc(OCc2cccc([N+](=O)[O-])c2)cc1
inactive: [14] 113 % of control | [15] 100 % of control | [16] 87 % of control

Cc1ccc(SCCN=C(N)CSS(=O)(=O)O)cc1
inactive: [17] 94 % of control | [8] 107 % of control | [1] 92 % of control | [18] 101 % of control | [19] 92 % of control

COc1ccc(/C=C2\N=C(c3cc(OC)c(OC)c(OC)c3)OC2=O)cc1Br
inactive: [2] 91 % of control | [3] 91 % of control | [4] 102 % of control

COC1=CC(=O)CC(C)C12Oc1c(Cl)c(OC)cc(OC)c1C2=O (stereo unspecified)
inactive: dose: 5.0 mg/kg/injection, schedule: Q## X008 (ip), vehicle: other 103 % of control | dose: 10.0 mg/kg/injection, schedule: Q## X008 (ip), vehicle: other 91 % of control | dose: 20.0 mg/kg/injection, schedule: Q## X008 (ip), vehicle: other 94 % of control | dose: 40.0 mg/kg/injection, schedule: Q## X008 (ip), vehicle: other 91 % of control | dose: 50.0 mg/kg/injection, schedule: Q## X024 (ip), vehicle: other 111 % of control | dose: 80.0 mg/kg/injection, schedule: Q## X008 (ip), vehicle: other 88 % of control | dose: 100.0 mg/kg/injection, schedule: Q## X024 (ip), vehicle: other 100 % of control | dose: 200.0 mg/kg/injection, schedule: Q## X024 (ip), vehicle: other 100 % of control | dose: 400.0 mg/kg/injection, schedule: Q## X024 (ip), vehicle: other 95 % of control | dose: 800.0 mg/kg/injection, schedule: Q## X024 (ip), vehicle: other 100 % of control

O=C(N/N=C/c1cccnc1)C(O)C(O)C(O)C(O)CO (stereo unspecified)
inactive: [20] 100 % of control | [21] 103 % of control | [22] 93 % of control

CCOC(=O)C(C)(C)Oc1ccc(OC(C)(C)C(=O)OCC)cc1
inactive: [23] 93 % of control | [11] 100 % of control | [24] 102 % of control

NCC(=O)c1cccc2ccc[n+]([O-])c12
inactive: [9] 97 % of control | [23] 97 % of control | [10] 95 % of control | [12] 98 % of control

CC(=O)OC1=CC2(OC(C)=O)CC1C1C(=O)OC(=O)C12 (stereo unspecified)
inactive: [20] 101 % of control | [25] 96 % of control | [21] 98 % of control | [26] 96 % of control | [22] 88 % of control | [27] 86 % of control

COC(=O)c1cc(OC)cc(OC)c1
inactive: dose: 100.0 mg/kg/injection, schedule: Q04DX003 (ip), vehicle: other 88 % of control | dose: 200.0 mg/kg/injection, schedule: Q04DX003 (ip), vehicle: other 92 % of control | dose: 400.0 mg/kg/injection, schedule: Q04DX003 (ip), vehicle: other 97 % of control

CN(C=O)C(=S)[S][Sb]([S]C(=S)Nc1ccc(S(=O)(=O)Nc2ccc(N=Nc3ccccc3)cc2)cc1)[S]C(=S)N(C)C=O
inactive: dose: 100.0 mg/kg/injection, schedule: Q01DX001 (ip), vehicle: steriod suspending solution 106 % of control | dose: 200.0 mg/kg/injection, schedule: Q01DX001 (ip), vehicle: steriod suspending solution 90 % of control

CCN(CC)CCOC(=O)N(c1ccccc1)c1ccccc1
inactive: dose: 6.25 mg/kg/injection, schedule: Q01DX009 (ip), vehicle: saline 103 % of control | [5] 106 % of control | [6] 104 % of control | [28] 92 % of control | [7] 95 % of control | [29] 103 % of control | [30] 100 % of control | [25] 103 % of control

CC1SC(=S)N(c2ccc(Cl)cc2)C1=O (stereo unspecified)
inactive: [23] 115 % of control | [10] 98 % of control | [11] 110 % of control | [12] 106 % of control

O=c1[nH]ccn2cncc12
inactive: [25] 93 % of control | [26] 103 % of control | [27] 106 % of control

CCP(=S)(CC)CC
inactive: [1] 104 % of control | [18] 96 % of control | [19] 93 % of control

CCN(CC)CC(=O)NCC(CCN1CCCCC1)c1cccc2ccccc12 (stereo unspecified)
inactive: [28] 98 % of control | [29] 111 % of control | [30] 105 % of control | [25] 111 % of control

C(=Nc1ccc2c(c1)Cc1ccccc1-2)c1ccnc2ccccc12
inactive: [23] 97 % of control | [10] 92 % of control | [11] 100 % of control | [12] 90 % of control | [24] 97 % of control | [13] 94 % of control

CCOC(=O)CCc1c(C)[nH]c(C(=O)OCC)c1C
inactive: [14] 98 % of control | [10] 92 % of control | [15] 97 % of control | [16] 97 % of control | [13] 108 % of control

CC(C)c1ccccc1NC1=NCCO1
inactive: [17] 86 % of control | [8] 89 % of control | dose: 25.0 mg/kg/injection, schedule: Q04DX002 (ip), vehicle: saline with Tween-80 101 % of control | [9] 96 % of control and 89 % of control | dose: 50.0 mg/kg/injection, schedule: Q04DX002 (ip), vehicle: saline with Tween-80 96 % of control | dose: 100.0 mg/kg/injection, schedule: Q04DX002 (ip), vehicle: saline with Tween-80 86 % of control | dose: 200.0 mg/kg/injection, schedule: Q04DX002 (ip), vehicle: saline with Tween-80 86 % of control
